From patent US20080050720A1 (priority 2003, published 2008)

Assays:
[1] = test system: YMR325W gene reporter; assay: 96-well liquid high-throughput like assay with YMR325W-GFP reporter strain; format: cell-based, S. cerevisiae; settings: serial 1 to 2 dilutions; initial Lovastatin 30 ug/ml, Miconazole 25 ug/ml, Fenpropimorph 50 ug/ml, Tunicamycin 25 ug/ml; 30° C., about 24 hours
Experimental: 1. A YMR325W gene reporter was transformed into wild-type S. Cerevisiae strain ABY12 and grown on solid Casamino Acids media plates.
2. A culture from the solid media plate was used to inoculate a 50 ml liquid culture in Casamino Acids media. The liquid culture was grown overnight at 30° C. to an OD600=8, and then was diluted in Casamino Acids media to an OD600=1.
3. Drug-like agents Lovastatin, Miconazole, and Fenpropimorph, sterol biosynthesis inhibitors that target different molecular steps in the sterol biosynthesis pathway, and UDP-N-acetyl-glucosamine-1-P transferase (GPT) inhibitor Tunicamycin, a negative control, were used in the assay. Each of the four drugs was added to individual wells (one drug per well) in the second column of a 96-well assay plate and serially diluted (1 to 2) into Casamino Acids media plus 2% DMSO in columns 3-12. The initial concentrations of the drugs were as follows: Lovastatin: 30 ug/ml, Miconazole: 25 ug/ml, Fenpropimorph: 50 ug/ml, and Tunicamycin: 25 ug/ml. The first column of the plate was used as a “no drug” control, containing only Casamino Acids media plus 2% DMSO. Each well contained a final volume of 100 ul of media and/or media plus drug.
4. […]
5. After the 24 hour incubation the 96-well assay plate was imaged in a Molecular Dynamics Fluorimager SI to measure the fluorescence from the YMR325W-GFP reporter.

[2] = test system: YMR325W reporter; assay: Solid plate halo assay, fluorescence from the GFP reporter; format: cell-based, S. cerevisiae; settings: for induction of YMR325W reporter (zone of high fluorescence at the edge of halo): paper disc, 20 ul of 50 ug/ml Miconazole or 20 ul of 1500 ug/ml Lovastatin, 30° C.
Experimental: (§1) The assay was designed to mimic assays of natural product producing strains in the presence of ABY12 reporter carrying strains.
(§2) 1. A YMR325W reporter was transformed into wild-type S. Cerevisiae strain ABY12 and grown on a solid Casamino Acids media plate.
(§3) 2. A culture from the solid media plate was used to inoculate a 50 ml liquid culture in Casamino Acids media. The liquid culture was grown overnight at 30° C. to a final OD600=8, and then diluted in Casamino Acids media to an OD600=1, or about 1×10^7 cells per milliliter. Five-hundred microliters of cell culture (about 5×10^6 cells) was spread evenly over the surface of each of two 100 mm solid agar-Casamino-acids-media plates to form a lawn of the YMR325W reporter strain on each plate.
(§4) 3. Two 6 mm diameter blank paper discs (Becton Dickinson #231039), evenly spaced apart, were placed on top of the agar surface of each plate. On one plate 20 ul of 50 ug/ml of the sterol biosynthesis inhibitor Miconazole was spotted onto one of the two paper discs and 20 ul of 10% DMSO was spotted on the other paper disc as a control. On the other plate 20 ul of 1500 ug/ml Lovastatin was spotted onto one of the two paper discs and 20 ul of 10% DMSO was spotted on the other paper disc as a control. The plates were incubated at 30° C. overnight.
(§5) 4. After a 72 hour incubation the assay plates were imaged in a Molecular Dynamics Fluorimager SI to measure the fluorescence from the GFP reporters.

[3] = test system: lawn of the YMR325W reporter strain (S. Cerevisiae strain ABY12); assay: Solid plate halo assay, growth of reporter strain lawn; format: cell-based; settings: paper disc; 20 ul of 50 ug/ml Miconazole or 20 ul of 1500 ug/ml Lovastatin; 30° C.
Experimental: as §1, §2, §3
as §4, with “The plates were incubated at 30° C. overnight.” left out
as §5

Compound | fluorescence from the YMR325W-GFP reporter [1] | induction of YMR325W reporter (zone of high fluorescence at the edge of halo) [2] | growth inhibition of the lawn (halo of no growth) [3] | size of zone of fluorescence, Lovastatin compared with Miconazole ([2]; 20 ul of 1500 ug/ml Lovastatin versus 20 ul of 50 ug/ml Miconazole)
Tunicamycin | No increase in fluorescence | – | – | –
Clc1ccc(COC(Cn2ccnc2)c2ccc(Cl)cc2Cl)c(Cl)c1 (stereo not drawn) [Miconazole] | – | significantly induced | inhibited the growth | –
CC[C@H](C)C(=O)O[C@H]1C[C@@H](C)C=C2C=C[C@H](C)[C@H](CC[C@@H]3C[C@@H](O)CC(=O)O3)[C@H]21 [Lovastatin] | – | significantly induced | inhibited the growth | much larger zone of fluorescence
